Among the data in paper PMC3953729 (FEBS Open Bio, 2014) are Kd values, retold here.

Experiment [1] concerns the target cyclohexanone monooxygenase (CHMO) (Acinetobacter johnsonii, UniProt P12015, L323C/A325C). The note with it: oxidised enzyme, engineered disulfide formed.
Experiment [2] addresses cyclohexanone monooxygenase (CHMO) (Acinetobacter johnsonii, UniProt P12015). In words: FAD absorbance change on titration. The class given is binding.

Each structure is given as a SMILES string.

For the compound `NC(=O)c1ccc[n+]([C@@H]2O[C@H](COP(=O)(O)OP(=O)(O)OC[C@H]3O[C@@H](n4cnc5c(N)ncnc54)[C@H](OP(=O)(O)O)[C@@H]3O)[C@@H](O)[C@H]2O)c1` [NADP^+], the Kd came to 15 µM in experiment [1] and 28 µM in experiment [2].

Broadly, the Kd is the concentration at which binding is half-saturated. Low readings indicate higher affinity, high ones lower affinity.
